Results published in PubChem BioAssay AID712 (Emory University Molecular Libraries Screening Center, 2007).
Active and inactive are the calls of the source. No rule for the calls is given here.

Target: Heat shock protein HSP 90-alpha (Homo sapiens) (UniProt P07900)
Experiment: tumor Hsp90 inhibitor potency, dose response (AID 712)
Settings: Hsp90 inhibition assay

## Nc1nonc1N1CCCCC1
  IC50: > 50 µM (inactive)

## CC(C)c1cc(Nc2cccc(O)c2)cc(C(C)C)c1O
  IC50: 27.2 µM

## Cc1ccc(S(=O)(=O)Nc2ccc(N)c(-c3ccccc3O)c2)cc1
  IC50: > 50 µM (inactive)

## O=C1c2cccnc2C(=O)N1Cc1ccc2c(c1)OCO2
  IC50: > 50 µM (inactive)

## C[C@H]1CCCC(=O)CCCCCc2cc(O)cc(O)c2C(=O)O1
  IC50: 2.2 µM

## Oc1ccc2[nH]ccc2c1
  IC50: > 50 µM (inactive)

## COc1ccc(S(=O)(=O)Nc2ccc3c(c2)OCO3)cc1OC
  IC50: inactive

## COc1cc(NCC(O)CN(CC(C)C)CC(C)C)c2nc(C)ccc2c1 (stereo not drawn)
  IC50: > 50 µM (inactive)

## COc1ccc(S(=O)(=O)Nc2ccc(O)c(-c3ccccc3O)c2)cc1OC
  IC50: > 50 µM (inactive)

## Nc1ccc2ncccc2c1N
  IC50: 3.38 µM

## CCc1ccc(-c2nnn(CCC(=O)OC)n2)cc1
  IC50: > 50 µM (inactive)

## O=C(CSc1nnc(Cc2cc(=O)[nH]c(=O)[nH]2)n1-c1ccccc1)NCC1CCCO1 (stereo not drawn)
  IC50: > 50 µM (inactive)

## O=C1c2ccccc2C(=O)N1Cc1ccc2c(c1)OCO2
  IC50: > 50 µM (inactive)

## O=S(=O)(c1cccc(-c2nnco2)c1)N1CCCC1
  IC50: > 50 µM (inactive)

## O=C1C(c2ccc3ccccc3n2)=C(O)c2ccccc21
  IC50: > 50 µM (inactive)

## Nc1ccc(NS(=O)(=O)c2cc(Cl)ccc2Cl)cc1-c1ccccc1O
  IC50: > 50 µM (inactive)

## Oc1ccc2ccccc2c1C=NC12CN3CCN(CN(C3)C1)C2
  IC50: 6.41 µM

## O=C(c1sc2ccccc2c1Cl)N(Cc1ccco1)C1CCS(=O)(=O)C1 (stereo not drawn)
  IC50: > 50 µM (inactive)

## NCc1cc(S(=O)(=O)Nc2cc(O)cc3cccnc23)ccc1F
  IC50: > 50 µM (inactive)

## CC(=O)Oc1cccc2c1C(=O)c1c(OC(C)=O)cc(C(=O)O)cc1C2=O
  IC50: 9.23 µM

## COc1ccc(OC)c(-n2c(C)nc3cc(C(=O)O)ccc32)c1
  IC50: 29.8 µM

## Cc1ccccc1Nc1cc2ccccc2c(=O)[nH]1
  IC50: inactive

## c1ccc2sc(SCc3ccc(-c4nnco4)cc3)nc2c1
  IC50: > 50 µM (inactive)

## O=C1C(c2c(O)[nH]c3ccc([N+](=O)[O-])cc23)=Nc2ccccc21
  IC50: < 1.56 µM

## O=C(NCCN1CCOCC1)NC1(C(F)(F)F)Oc2ccc(Cl)cc2O1 (stereo not drawn)
  IC50: > 50 µM (inactive)

## CC(=O)Oc1cc2oc(=O)cc(C)c2cc1OC(C)=O
  IC50: > 50 µM (inactive)

## O=C(O)c1ccc2c3c(ncnc13)-c1ccccc1C2=O
  IC50: 5.22 µM

## CCCCn1c(NC(=O)c2ccccc2)c(C#N)c2nc3ccccc3nc21
  IC50: 27.1 µM

## CN(C)C=Nc1c(Br)cc(Br)c2nonc12
  IC50: > 50 µM (inactive)

## COc1ccc(-n2nc3c(c2NC(=O)c2ccc(Br)cc2)CS(=O)C3)cc1 (stereo not drawn)
  IC50: > 50 µM (inactive)

## COc1cc(NCCCC(C)N)c2nccc(Cl)c2c1 (stereo not drawn)
  IC50: 12.5 µM

## O=S(=O)(Cc1ccc(Cl)cc1)Nc1ccc2c(c1)OCO2
  IC50: > 50 µM (inactive)

## O=C1C(c2nc3ccccc3s2)=C(O)c2ccccc21
  IC50: > 50 µM (inactive)

## Nc1cc2c(c(O)c1O)C(=O)c1ccccc1C2=O
  IC50: < 1.56 µM

## CCc1cc(C(=O)Cc2ccc(F)cc2)c(O)cc1O
  IC50: > 50 µM (inactive)

## COc1ccc(C(=O)c2c(C)n(C)c(=O)n(C)c2=O)cc1
  IC50: > 50 µM (inactive)

## Cc1ccc(S(=O)(=O)Nc2ccc(F)c(-c3c(O)ccc4c3OCO4)c2)cc1
  IC50: 25 µM

## O=C(O)/C=C/c1ccc(O)c(O)c1
  IC50: > 50 µM (inactive)

## Cc1ccc(OC(=O)c2ccc(N)cc2O)cc1
  IC50: > 50 µM (inactive)

## CC(C)OC(=O)CSc1nc2ccccc2s1
  IC50: > 50 µM (inactive)

## O=C(c1cc(-c2ccncc2)nc2ccc(Br)cc12)N1CCN(c2ccccn2)CC1
  IC50: > 50 µM (inactive)

## CCOC(=O)N1CCC(NC(=O)CSCc2nc(-c3sccc3C)oc2C)CC1
  IC50: > 50 µM (inactive)

## CCCC(C)C(=O)Nc1cc(OC)ccc1OC (stereo not drawn)
  IC50: > 50 µM (inactive)

## O=C(CSc1n[nH]c(-c2ccccc2)n1)c1ccc(O)c(O)c1
  IC50: 7.72 µM

## Cc1ccc2[nH]c3c(c2c1)CN(C(=O)CN1CCN(c2ccccc2)CC1)CC3
  IC50: > 50 µM (inactive)

## Oc1cc(O)c2ncccc2c1
  IC50: > 50 µM (inactive)

## Cc1ccc(S(=O)(=O)N2CCC(C(=O)N[C@@H](C)C(=O)Nc3ccc4c(c3)OCO4)CC2)cc1
  IC50: 11.9 µM

## CC(OC(=O)c1cccs1)C(=O)NCc1cccs1 (stereo not drawn)
  IC50: > 50 µM (inactive)

## COc1cc(NS(=O)(=O)c2ccc(F)c(C#N)c2)c2ncccc2c1
  IC50: > 50 µM (inactive)

## Nc1cccc2cnccc12
  IC50: > 50 µM (inactive)

## COc1cc(N)c2nccc(OCc3ccccc3)c2c1
  IC50: > 50 µM (inactive)

## Cc1nnc(NC(=O)CSc2nc(N)cc(N)n2)s1
  IC50: > 50 µM (inactive)

## Cc1cc(SCC(N)=O)nc(SCC(=O)c2ccccc2)n1
  IC50: > 50 µM (inactive)

## COc1ccc(N2CSC3=C(C#N)C(c4ccc(OC)c(OC)c4)CC(=O)N3C2)c(OC)c1 (stereo not drawn)
  IC50: > 50 µM (inactive)

## O=C1c2ccccc2-c2onc3ccc(NCc4ccco4)c1c23
  IC50: < 1.56 µM

## CC1(C)CC(=O)c2c(O)cc(O)cc2O1
  IC50: > 50 µM (inactive)

## CCN(CC)CC(O)c1ccnc2c(O)cccc12 (stereo not drawn)
  IC50: > 50 µM (inactive)

## Cc1c(N=c2c(=O)c3ccccc3c2=O)c(=O)n(-c2ccccc2)n1C
  IC50: 20.6 µM

## CCc1nc(SCC(=O)c2ccc(O)cc2O)n[nH]1
  IC50: > 50 µM (inactive)

## CCCc1cc2c(cc1NS(=O)(=O)c1ccc(CCNC(C)=O)cc1)OCO2
  IC50: > 50 µM (inactive)

## CC(CCN(C)C)Nc1cc(O)cc2cccnc12 (stereo not drawn)
  IC50: 1.56 µM

## N#Cc1cc(S(=O)(=O)Nc2cc(OCc3ccccc3)cc3cccnc23)ccc1F
  IC50: > 50 µM (inactive)

## Nc1ccc2[nH]ccc2c1
  IC50: > 50 µM (inactive)

## CCn1c(CSc2nnc(-c3cccnc3)n2-c2ccccc2C)nc2cc(C(=O)O)ccc21
  IC50: 0.679 µM

## Cn1cnnc1SCC(=O)c1ccc2c(c1)CCCC2
  IC50: > 50 µM (inactive)

## Cc1ccc(C(=O)O)cc1S(=O)(=O)NCC1CCCO1 (stereo not drawn)
  IC50: > 50 µM (inactive)

## COc1cc(NC(=O)CCCCCCN)c2ncccc2c1
  IC50: > 50 µM (inactive)

## COc1ccc(C2CC(c3ccccc3O)=NN2)cc1OC (stereo not drawn)
  IC50: > 50 µM (inactive)

## Oc1c(I)cc(Cl)c2cccnc12
  IC50: > 50 µM (inactive)

## COc1ccc(C2CC(=O)C3=C(C2)Nc2ncnn2C3c2ccccc2)cc1 (stereo not drawn)
  IC50: > 50 µM (inactive)

## OCCCc1nc2n(n1)C(c1ccccc1)C=C(c1ccccc1)N2 (stereo not drawn)
  IC50: > 50 µM (inactive)

## NNc1ccc2c(Cl)cc(Cl)c(O)c2n1
  IC50: > 50 µM (inactive)

## COc1ccc(NCc2cc3cc(OC)ccc3[nH]c2=O)cc1
  IC50: > 50 µM (inactive)

## COC(=O)C1=C(C)N(c2cccc3ccccc23)C(=O)C1
  IC50: > 50 µM (inactive)

## Cc1occc1C(=O)NC(C)C(C)(C)C (stereo not drawn)
  IC50: > 50 µM (inactive)

## CCOC(=O)C1=C(C)OC(N)=C(C(=O)OCC)C1c1cccnc1 (stereo not drawn)
  IC50: > 50 µM (inactive)

## Oc1ccc(-c2onc(C(F)(F)F)c2-c2cscn2)c(O)c1
  IC50: 18 µM

## O=C(Cn1cnc2ccccc2c1=O)NCCC(=O)Nc1ccc2c(c1)OCCO2
  IC50: > 50 µM (inactive)

## O=[N+]([O-])c1ccc(O)c2cccnc12
  IC50: > 50 µM (inactive)

## CC(=O)Nc1cnc2ccccc2n1
  IC50: inactive

## COC(=O)c1ccc2c(c1)SC1=C(CCCC1=O)N2
  IC50: 10.9 µM

## CCSCCOC(=O)C1=C(C)NC(=O)NC1c1ccccc1 (stereo not drawn)
  IC50: > 50 µM (inactive)

## Nc1cccc2cc(O)ccc12
  IC50: > 50 µM (inactive)

## O=[N+]([O-])c1cc(S(=O)(=O)Nc2ccc(F)c(-c3c(O)ccc4c3OCO4)c2)ccc1Cl
  IC50: 25 µM

## CCC(C)NCCNc1cc(OC)cc2cccnc12 (stereo not drawn)
  IC50: 3.12 µM

## CC(=O)Nc1cc(OC(C)=O)c2nonc2c1OC(C)=O
  IC50: 5.7 µM

## CC(=O)CCc1c(C)[nH]c2ccccc2c1=O
  IC50: > 50 µM (inactive)

## CCOC(=O)NC1(NCc2ccccc2)Oc2ccccc2O1
  IC50: inactive

## O=C1NCCCC2c3cc(O)c4ccccc4c3OC12N1CCCCC1 (stereo not drawn)
  IC50: 5.79 µM

## Nc1cc(N)c(OCC(F)(F)F)cc1OCC(F)(F)F
  IC50: inactive

## Nc1ccc(NS(=O)(=O)c2ccccc2N)cc1-c1ccccc1O
  IC50: > 50 µM (inactive)

## O=C(NCCCn1ccnc1)c1noc2c1CCc1ccccc1-2
  IC50: 13.5 µM

## COc1ccc2c(c1-c1cc(NS(=O)(=O)c3ccc(C)cc3)ccc1N)OCO2
  IC50: > 50 µM (inactive)

## COc1ccc2c(c1-c1cc(NS(=O)(=O)c3cccc([N+](=O)[O-])c3)ccc1N)OCO2
  IC50: > 50 µM (inactive)

## O=C1C(C2=C(O)c3ccccc3C2=O)=Nc2ccccc21
  IC50: > 50 µM (inactive)

## COc1cc(NCCN(CC(C)C)CC(C)C)c2ncccc2c1
  IC50: inactive

## COc1ccc(S(=O)(=O)N(C)CC(=O)N2CCC(C(N)=O)CC2)cc1Cl
  IC50: > 50 µM (inactive)

## CCn1cc(C(=O)NCc2ccccn2)c(=O)c2cc(S(=O)(=O)N3CCCCC3)ccc21
  IC50: 17.4 µM

## COc1cc(N)c2nccc(Cl)c2c1
  IC50: > 50 µM (inactive)

## NCCCCCNc1cc(O)cc2cccnc12
  IC50: < 1.56 µM

## COc1cccc(C(=O)NC2CC3CCCC(C2)N3CC(=O)Nc2ccccc2)c1 (stereo not drawn)
  IC50: 15.7 µM

## CC(C)NCCCC(C)Nc1cc(O)cc2cccnc12 (stereo not drawn)
  IC50: 1.56 µM

## Nc1cc(Br)cc2cccnc12
  IC50: > 50 µM (inactive)

## N#Cc1ccc(CSc2nnc(Nc3ccccc3)s2)cc1
  IC50: > 50 µM (inactive)

## O=S(=O)(Nc1ccc(O)c(-c2ccccc2O)c1)c1cc(Cl)ccc1Cl
  IC50: > 50 µM (inactive)

## CC(=O)Oc1cc2c(C(=O)NCCN3CCOCC3)c(C)oc2c2ccccc12
  IC50: 19.7 µM

## N#Cc1c(-c2ccco2)[nH]c(=O)[nH]c1=O
  IC50: > 50 µM (inactive)

## O=[N+]([O-])c1cccc(S(=O)(=O)Nc2ccc(O)c(-c3ccccc3O)c2)c1
  IC50: > 50 µM (inactive)

## CCn1c(CSc2nccn2C)nc2cc(C(=O)O)ccc21
  IC50: 13.4 µM

## COc1ccc(S(=O)(=O)Nc2ccc(N)c(-c3ccccc3O)c2)cc1OC
  IC50: > 50 µM (inactive)

## Nc1ccc(NS(=O)(=O)c2ccccc2[N+](=O)[O-])cc1-c1ccccc1O
  IC50: > 50 µM (inactive)

## O=C1c2ccccc2-c2onc3ccc(NCCCn4ccnc4)c1c23
  IC50: 0.28 µM

## Cc1c(-c2nn(C)c(=O)c3ccccc23)oc2ccc(F)cc2c1=O
  IC50: 2.46 µM
